These results are taken from PMC10243163, “A frog‐derived antimicrobial peptide as a potential anti‐biofilm agent in combating Staphylococcus aureus skin infection” (Journal of Cellular and Molecular Medicine, 2023).

Converted amounts (≈) assume the structure as drawn. Positions of bridges follow the written chain, without caps; N, C: chain ends. Residues, ends and D or L forms follow the SMILES beside them.

As a reminder, the MIC is the lowest concentration that inhibits growth of the organism.

The test system of data set [1] is S. aureus ATCC 6538. The format is cell-based, Staphylococcus aureus. The method, then:
(§1) Antimicrobial assays were conducted using standard broth micro‐dilutions, as mentioned previously.[11] Gram‐positive bacteria S. aureus (ATCC 6538), Methicillin‐resistant S. aureus (MRSA; NCTC 12493), […] (NCTC 12697), Gram‐negative bacteria Escherichia coli (ATCC 8739), Klebsiella pneumoniae (ATCC 43816), Pseudomonas aeruginosa (ATCC 9027), Acinetobacter baumannii (ATCC BAA 747), and yeast, Candida albicans (ATCC 10231) were used in the test. The experiments were conducted in three independent runs.

The subject of data set [2] is MRSA NCTC 12493. Type of data set: cell-based, Methicillin‐resistant S. aureus. As to the method:
as §1

Data set [3] concerns E. faecalis NCTC 12697. The format is cell-based.
For data set [4], the system named is E. coli ATCC 8739. Type of data set: cell-based, Escherichia coli. As to the method:
as §1

Data set [5] concerns K. pneumoniae ATCC 43816. The format is cell-based, Klebsiella pneumoniae. As to the method: as §1
In data set [6] the test system is P. aeruginosa ATCC 9027. The format is cell-based, Pseudomonas aeruginosa. The method, then: as §1
A further data set relates to C. albicans ATCC 10231. Type of data set: cell-based, Candida albicans. As to the method: as §1
In data set [7] the test system is Gram‐positive and Gram‐negative test bacteria. Type of data set: cell-based. As to the method: as §1
In another data set the test system is horse erythrocytes. The data set can be described thus: Haemolytic activity. The format is cell-based. As to conditions: 128 μM peptide; horse erythrocytes 2% v/v, 37°C, 2 h; 0.1% Triton X‐100 positive control; absorbance 570 nm; three independent runs. As to the method:
The haemolytic activity of peptides was conducted using horse erythrocytes (2%, v/v). Peptide solutions were mixed with washed horse erythrocyte suspension at 37°C for 2 h. Triton X‐100 (0.1%) was used as a positive control. The mixture was then centrifuged at 930 g for 5 min. The absorbance of the supernatants was detected at 570 nm. The haemolysis rate was calculated using the formula: Haemolysis%=Sample group−negative group/positive group−negative group×100%.
This experiment was performed in three independent runs.

In data set [8] the test system is S. aureus ATCC 6538. The format is cell-based, Staphylococcus aureus. As to conditions: ATCC 6538, 24 h. The method, then:
(§2) Peptide solutions were first mixed with bacterial cultures (5 × 10^5 CFU/mL) and incubated at 37°C for 24 h. The planktonic bacterial cells were gently removed by washing with PBS the next day, and methanol was utilised to fix the biofilm. Crystal violet (0.1% v/v), PBS and acetic acid (30%, v/v) were subsequently used to stain biofilm, remove remaining stains and re‐dissolve stains, respectively. The absorbance was determined at 595 nm. The experiments were conducted in three independent runs.

The test system of data set [9] is MRSA NCTC 12493. The format is cell-based, Methicillin‐resistant S. aureus. As to conditions: NCTC 12493, 24 h. The method, then:
as §2

Data set [10] deals with E. faecalis NCTC 12697. The format is cell-based. As to conditions: NCTC 12697, 24 h. As to the method: as §2
In data set [11] the test system is E. coli ATCC 8739. Type of data set: cell-based, Escherichia coli. As to conditions: ATCC 8739, 24 h. As to the method: as §2
Data set [12] deals with K. pneumoniae ATCC 43816. Type of data set: cell-based, Klebsiella pneumoniae. As to conditions: ATCC 43816, 24 h. The method, then:
as §2

The subject of data set [13] is P. aeruginosa ATCC 9027. The format is cell-based, Pseudomonas aeruginosa. As to conditions: ATCC 9027, 24 h. As to the method: as §2
Data set [14] relates to S. aureus ATCC 6538. The format is cell-based, Staphylococcus aureus. As to conditions: ATCC 6538, 24 h. As to the method: (§3) The bacterial culture (5 × 10^5 CFU/mL) was cultured in a sterile 96‐well plate for 24 h to generate mature biofilms. The planktonic bacteria were removed by washing three times with sterile PBS buffer. Then, fresh broth with different peptide concentrations was added to each well and further incubated for another 24 h. Then, the plate was stained with crystal violet. The stain was solubilised in 30% acetic acid, and the absorbance was measured at 595 nm. The experiments were conducted in three independent runs.
The source holds these as a separate data set.

Data set [15] relates to MRSA NCTC 12493. The format is cell-based, Methicillin‐resistant S. aureus. As to conditions: NCTC 12493, 24 h. The method, then: as §3
The source holds these as a separate data set.

Data set [16] concerns E. faecalis NCTC 12697. Type of data set: cell-based. As to conditions: NCTC 12697, 24 h. As to the method: as §3
This is another data set of the same source.

In data set [17] the test system is E. coli ATCC 8739. Type of data set: cell-based, Escherichia coli. As to conditions: ATCC 8739, 24 h. As to the method: as §3
The source holds these as a separate data set.

Data set [18] concerns K. pneumoniae ATCC 43816. Type of data set: cell-based, Klebsiella pneumoniae. As to conditions: ATCC 43816, 24 h. The method, then:
as §3
The source holds these as a separate data set.

The subject of data set [19] is P. aeruginosa ATCC 9027. Type of data set: cell-based, Pseudomonas aeruginosa. As to conditions: ATCC 9027, 24 h. The method, then: as §3
The source holds these as a separate data set.

In data set [20] the test system is Gram‐positive and Gram‐negative test bacteria. Type of data set: cell-based. As to conditions: geometric mean of MICs against the three Gram‐negative strains.
Data set [21] deals with MRSA NCTC 12493. The data set can be described thus: Ex vivo porcine skin infection model. Further details: species or system Methicillin‐resistant S. aureus. As to conditions: vancomycin 8 μM, 4 h. The method, then:
The antibacterial efficacy of OG9 and OG9c‐De‐NH2 was further evaluated in an ex vivo porcine skin model, as reported.[27] The porcine skin was shaved and cleaned with 70% ethanol and dd H2O. The polyethylene tubing was glued to the cleaned skin surface with cyanoacrylate glue. Exponential or persister cells were inoculated to infect each skin sample. After 15 min of incubation at 37°C, each skin sample was treated with peptides at concentrations of 1 × or 10 × MIC or vancomycin (8 μM). After another 4 h of incubation, each tubing well was washed with PBS. Ten microliters of the mixture in each well was diluted with PBS buffer and spotted on the agar plate. The number of viable bacteria cells was counted after overnight incubation. The experiments were conducted in three independent runs.

As for `CC[C@H](C)[C@@H]1NC(=O)[C@H](CCCCN)NC(=O)[C@@H](NC(=O)[C@H](CC(C)C)NC(=O)[C@@H](NC(=O)[C@H](CCCCN)NC(=O)[C@@H]2CCCN2C(=O)[C@H](CC(C)C)NC(=O)[C@H](Cc2ccccc2)NC(=O)[C@H](CC(N)=O)NC(=O)[C@H](C)NC(=O)[C@H](C)NC(=O)[C@H](CC(C)C)NC(=O)CNC(=O)[C@H](C)NC(=O)[C@@H](NC(=O)[C@H](CC(C)C)NC(=O)[C@@H]2CCCN2C(=O)[C@@H](N)Cc2ccccc2)[C@@H](C)CC)[C@@H](C)CC)CSSC[C@@H](C(=O)O)NC(=O)[C@H](CCCCN)NC(=O)[C@H](CCCNC(=N)N)NC(=O)[C@H](C)NC1=O` [OG9] (H-FPLIAGLAANFLPKILCKIARKC-OH; disulfide 17-23), the MBC was 8 µM (≈ 20 µg/mL) in the data set on S. aureus ATCC 6538 [1]; 32 µM (≈ 80 µg/mL) in the data set on MRSA NCTC 12493 [2]; 16 µM (≈ 40 µg/mL) against E. faecalis NCTC 12697 [3]; 4 µM (≈ 10 µg/mL) against E. coli ATCC 8739 [4]; 64 µM (≈ 160 µg/mL) against K. pneumoniae ATCC 43816 [5]; 16 µM (≈ 40 µg/mL) against P. aeruginosa ATCC 9027 [6]. The molecule also yielded an MBC in the data set on C. albicans ATCC 10231 of more than 128 µM. In addition, the MIC came to 4 µM (≈ 10 µg/mL) against S. aureus ATCC 6538 [1]; 16 µM (≈ 40 µg/mL) with MRSA NCTC 12493 [2]; 16 µM (≈ 40 µg/mL) in the data set on E. faecalis NCTC 12697 [3]; 4 µM (≈ 10 µg/mL) against E. coli ATCC 8739 [4]; 64 µM (≈ 160 µg/mL) in the data set with K. pneumoniae ATCC 43816 [5]; 16 µM (≈ 40 µg/mL) in the data set with P. aeruginosa ATCC 9027 [6]. In addition, the MIC against C. albicans ATCC 10231 is more than 128 µM. The “GM MIC, total bacteria” value in data set [7] (geometric mean of MICs against all test bacteria) came out at 12.7 µM. In [7] (geometric mean of MICs against the three Gram‐positive strains), the “GM MIC, G+” value was determined as 10.1 µM. In addition, the Haemolysis entry with horse erythrocytes is “around 85%”. In addition, the MBIC was 16 µM in the data set with S. aureus ATCC 6538 [8]; 16 µM in the data set on MRSA NCTC 12493 [9]; 32 µM in the data set with E. faecalis NCTC 12697 [10]; 32 µM with E. coli ATCC 8739 [11]; >128/>128 μM with K. pneumoniae ATCC 43816 [12]; >128/>128 μM with P. aeruginosa ATCC 9027 [13]. Moreover, the MBEC in the data set with S. aureus ATCC 6538 [14] is more than 128 µM; in the data set on MRSA NCTC 12493 [15], more than 128 µM; in the data set with E. faecalis NCTC 12697 [16], more than 128 µM; in the data set on E. coli ATCC 8739 [17] it was more than 128 µM; in the data set with K. pneumoniae ATCC 43816 [18], >128/>128 μM; in the data set on P. aeruginosa ATCC 9027 [19] it was >128/>128 μM. Moreover, in [20], the “GM MIC, G−” value stood at 16 µM.

Take `CN[C@H](CC(C)C)C(=O)N[C@H]1C(=O)N[C@@H](CC(N)=O)C(=O)N[C@H]2C(=O)N[C@H]3C(=O)N[C@H](C(=O)N[C@H](C(=O)O)c4cc(O)cc(O)c4-c4cc3ccc4O)[C@H](O)c3ccc(c(Cl)c3)Oc3cc2cc(c3O[C@@H]2O[C@H](CO)[C@@H](O)[C@H](O)[C@H]2O[C@H]2C[C@](C)(N)[C@H](O)[C@H](C)O2)Oc2ccc(cc2Cl)[C@H]1O` [Vancomycin]: the “Ex vivo effect on exponential MRSA cells” value in the data set on MRSA NCTC 12493 [21] was “weak inhibiting effect”.
